According to the supplement of paper PMC10307832:

How the values were obtained:
Assay in all cases: relative viability (nuclei count vs DMSO), 5 days (fraction); higher = more cells survive
Erlotinib + Crizotinib = compound: C#Cc1cccc(Nc2ncnc3cc(OCCOC)c(OCCOC)cc23)c1 [Erlotinib] + C[C@@H](Oc1cc(-c2cnn(C3CCNCC3)c2)cnc1N)c1c(Cl)ccc(F)c1Cl [Crizotinib] (partner 1 µM)
How it was run: (§1)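 One day after seeding in 1536-well plates, lung cancer cell lines were dosed by pin tool. Dosing was either single-drug or a fixed anchor-drug dose plus five library-drug doses (not always all listed) in √10 steps. After 5 days, nuclei were stained in one fix-and-stain step and counted on 4× images, and relative viability is the nuclei count of treated wells over that of vehicle wells, given as the median of duplicate plates.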

Erlotinib + Alpelisib = compound: C#Cc1cccc(Nc2ncnc3cc(OCCOC)c(OCCOC)cc23)c1 [Erlotinib] + Cc1nc(NC(=O)N2CCC[C@H]2C(N)=O)sc1-c1ccnc(C(C)(C)C(F)(F)F)c1 [Alpelisib] (partner 2 µM)
How it was run: as §1

Erlotinib + Decitabine = compound: C#Cc1cccc(Nc2ncnc3cc(OCCOC)c(OCCOC)cc23)c1 [Erlotinib] + Nc1ncn([C@H]2C[C@H](O)[C@@H](CO)O2)c(=O)n1 [Decitabine] (partner 2 µM)
How it was run: as §1

AT9283 + Trametinib = compound: O=C(Nc1c[nH]nc1-c1nc2ccc(CN3CCOCC3)cc2[nH]1)NC1CC1 [AT9283] + CC(=O)Nc1cccc(-n2c(=O)n(C3CC3)c(=O)c3c(Nc4ccc(I)cc4F)n(C)c(=O)c(C)c32)c1 [Trametinib] (partner 0.02 µM)
How it was run: as §1

AT9283 + Foretinib = compound: O=C(Nc1c[nH]nc1-c1nc2ccc(CN3CCOCC3)cc2[nH]1)NC1CC1 [AT9283] + COc1cc2c(Oc3ccc(NC(=O)C4(C(=O)Nc5ccc(F)cc5)CC4)cc3F)ccnc2cc1OCCCN1CCOCC1 [Foretinib] (partner 0.25 µM)
How it was run: as §1

Cell Line	relative viability (Erlotinib + Crizotinib; first compound 0.02 µM)	relative viability (Erlotinib + Crizotinib; first compound 0.2 µM)	relative viability (Erlotinib + Crizotinib; first compound 0.6325 µM)	relative viability (Erlotinib + Crizotinib; first compound 2 µM)	relative viability (Erlotinib + Alpelisib; first compound 0.02 µM)	relative viability (Erlotinib + Alpelisib; first compound 0.2 µM)	relative viability (Erlotinib + Alpelisib; first compound 0.6325 µM)	relative viability (Erlotinib + Alpelisib; first compound 2 µM)	relative viability (Erlotinib + Decitabine; first compound 0.02 µM)	relative viability (Erlotinib + Decitabine; first compound 0.2 µM)	relative viability (Erlotinib + Decitabine; first compound 0.6325 µM)	relative viability (Erlotinib + Decitabine; first compound 2 µM)	relative viability (AT9283 + Trametinib; first compound 0.003 µM)	relative viability (AT9283 + Trametinib; first compound 0.03 µM)	relative viability (AT9283 + Trametinib; first compound 0.09487 µM)	relative viability (AT9283 + Trametinib; first compound 0.3 µM)	relative viability (AT9283 + Foretinib; first compound 0.003 µM)	relative viability (AT9283 + Foretinib; first compound 0.03 µM)	relative viability (AT9283 + Foretinib; first compound 0.09487 µM)	relative viability (AT9283 + Foretinib; first compound 0.3 µM)
HARA	1.04	0.983	0.79	0.505	0.946	0.619	0.646	0.256	0.69	0.49	0.374	0.353	0.691	0.203	0.118	0.151	0.79	0.151	0.122	0.109
PC-14	0.651	0.278	0.23	0.224	0.562	0.133	0.171	0.112	0.194	0.142	0.151	0.145	0.827	0.459	0.131	0.0923	0.956	0.796	0.581	0.16
NCI-H1915	0.948	0.832	0.919	0.86	1.09		1.09		0.288	0.266	0.272	0.269	0.3	0.31	0.225	0.132	1.04	0.995	0.451	0.256
COR-L23	0.718	0.681	0.666	0.614	0.84	0.719	0.836	0.553	0.425	0.432	0.49	0.434	0.668	0.245	0.166	0.161	1.01	0.623	0.216	0.182
NCI-H838	0.953	0.838	0.907	0.693	1	0.962	1.09	0.855	0.507	0.48	0.488	0.465	0.543	0.275	0.16	0.144	1.05	0.427	0.262	0.281
BEN	0.957	0.738	0.913	0.779	1.08	1.01	1.26		0.711	0.72	0.841	0.66	0.838	1.17	0.568	0.368	0.47	0.65	0.185	0.19
SW 1573	0.88	0.814	0.864	0.646	0.805	0.706	0.87			0.511	0.495	0.576	0.597	0.174	0.17	0.143	0.621	0.423	0.239	0.233
NCI-H1975	0.947	0.96	1.04	0.694	0.717	0.696	0.535	0.454	0.431	0.402	0.409	0.332	0.323	0.777	0.337	0.234	0.947	0.949	0.82	0.326
LXF-289	0.818	0.828	0.761	0.711	1.08	1	0.976	0.913	0.448	0.398	0.363	0.383	0.695	0.686	0.254	0.145	1	0.571	0.225	0.109
NCI-H1993	0.816	0.646	0.854	0.713	0.73	0.644	0.647	0.739	0.602	0.483	0.553	0.531	0.541	0.529	0.445	0.433	0.82	0.603	0.61	0.534
NCI-H23	0.565	0.481	0.601	0.433	0.763	0.593	0.816	0.634	0.312	0.293	0.324	0.337	0.377	0.291	0.281	0.19	0.985	0.717	0.412	0.32
SK-MES-1	1.06	0.725	0.524	0.38	0.926	0.536	0.533	0.298	0.393	0.345	0.31	0.27	0.643	0.594	0.541	0.276	0.924	0.863	0.604	0.143
NCI-H2023	0.575	0.44	0.469	0.294	0.64	0.525	0.453	0.401	0.247	0.222	0.251	0.24	0.572	0.604	0.227	0.119	0.739	0.86	0.301	0.108
LCLC-97TM1	0.44		0.376	0.487	0.218		0.316	0.259	0.224	0.254	0.234	0.256	0.203	0.159	0.119	0.123	0.938	0.49	0.163	0.176
NCI-H322M	0.786	0.707	0.668	0.322	0.693	0.745	0.589	0.335	0.718	0.582	0.55	0.545	0.486	0.49	0.407	0.405	0.958	0.544	0.41	0.462
NCI-H1734	0.644	0.653	0.753	0.654	0.704	0.61	0.84	0.602	0.488	0.485	0.463	0.509	0.7	0.406	0.267	0.271	0.904	0.309	0.334	0.246
